Measured values as given in publication PMC12310718, “Evaluation of newly synthesized schiff base Pd(II) complexes for prostate cancer treatment through in vitro cytotoxicity and molecular mechanistic studies” (Frontiers in Chemistry, 2025).

Columns and labels:
DU-145 = assay: MTT cytotoxicity assay, DU-145; format: cell-based, human; details: mean ± SD
Text: (§1) In this investigation, two experimental groups of cancer cell lines were employed: human prostate carcinoma cells lacking prostate-specific membrane antigen (PSMA) and androgen receptor independence (DU-145 and HTB-81™), alongside human prostate carcinoma cells (PC-3 and CRL-1435™). The control group comprised non-cancerous human fibroblasts (MRC-5 and CCL-171™). All cell lines utilized in this study were procured from the American Type Culture Collection (ATCC, Manassas, VA, United States). The cells were maintained in a complete medium containing high-glucose DMEM, supplemented with 10% fetal bovine serum and 200 mM L-glutamine (reagents sourced from Sigma-Aldrich, St. Louis, MO, United States). Cultivation of the cells was conducted in 25 cm^2 flasks (Thermo Fisher Scientific, Waltham, MA, United States) at 37°C under conditions of absolute humidity and a 5% CO2 atmosphere. The cytotoxic effects of three newly synthesized Pd(II) complexes were assessed on DU-145, PC-3, and MRC-5 cell lines using the MTT assay. For comparison, the cytotoxicity of cisplatin, a clinically established chemotherapeutic agent, was also evaluated across all cell lines. Cells were harvested during their exponential growth phase, counted, and seeded at a density of 5 × 10^3 cells per well in 96-well culture plates. […] The treated cells were incubated under identical conditions (37°C, 5% CO2, absolute humidity) for durations of 24, 48, and 72 h. After incubation, the medium was removed, and an MTT solution was added to each well. The cells were then incubated for an additional 2 h to facilitate the reduction of thiazolyl blue tetrazolium bromide in the MTT solution. Subsequently, the MTT solution was carefully removed, and the resulting formazan crystals were solubilized in DMSO. […] All experiments were performed in triplicate and repeated across three independent runs. Cell viability was calculated as a percentage by dividing the absorbance of treated cells (minus blank absorbance) by the average absorbance of untreated control cells (minus blank absorbance) and multiplying by 100. % of the viable cells=absorbance of treated cell−absorbance of blank / absorbance of untreated cell−absorbance of blank * 100 […] This analysis was performed using Microsoft Office Excel 2010, leveraging its curve-fitting capabilities to determine precise inhibitory concentrations.

[1] = Stability in DMSO by UV-Vis spectra; format: physicochemical; details: UV-Vis 200–600 nm after t = 0, 24, and 48 h
Experimental: UV-Vis spectra were recorded in DMSO as a solvent, at room temperature, and the data of the absorption wavelength maxima (λ max) are given in Table 3 and Figure 3. […] Further, two more bands are attributed to the ligand 1b, the medium intensity π → π* and very weak and broad n→π* transition of the imine group. Upon coordination, the π → π* band of the imine group decreases in intensity, while the new band at 393 nm, attributed to Ligand-to-Metal Charge Transfer (LMCT), appears ([Felicio et al., 2001]; [Hussain et al., 2019]). The stability of Schiff base metal complexes is a key factor influencing their performance during biological evaluations. Unstable complexes, prone to hydrolysis or degradation, may lead to reduced efficacy, altered mechanisms of action, or false-positive/negative outcomes. Palladium (II), typically adopting a square-planar geometry ([Kostić et al., 2003]), forms stable complexes with bidentate Schiff base ligands, but its coordination environment can be sensitive to ligand exchange. […] In order to determine the stability of selected complex 2b in DMSO, a series of UV-Vis spectra in the range of 200–600 nm were recorded after t = 0, 24, and 48 h (Supplementary Figure SI17) ([Marjanović et al., 2023]).

[2] = Stability assay in PBS by UV-Vis spectra; format: physicochemical; details: ∼10^–5 M, less than 0.7% DMSO, UV-Vis after 0, 24 and 48 h
Experimental: The complex used for the testing was dissolved in the minimal amount of DMSO (dimethylsulfoxide) possible and diluted with PBS of ∼10^–5 M in concentration and less than 0.7% DMSO. UV-Vis spectra were recorded after 0, 24 and 48 h in the range 200–600 nm. Absorption spectra were recorded on UV–Vis Perkin–Elmer Lambda 35 spectrophotometer equipped with water thermostated cell.

PC-3 = assay: MTT cytotoxicity assay, PC-3; format: cell-based, human; details: mean ± SD
Text: as §1

DU-145 cells [3] = assay: Mitochondrial membrane potential by JC-10 staining; format: cell-based, human; details: DU-145, IC50 of complex, 48 h
Experimental: JC-10 gathers in the mitochondria of living cells, forming red fluorescence aggregates. On the other hand, JC-10 is also present in a monomeric cytosolic form and dyes cells green in necrotic and apoptotic cells. Mitochondrial membrane potential was assessed using the dye JC-10. DU-145 cells were seeded at a density of 2 × 10^4 cells per well in 24-well cell culture plates and incubated in complete DMEM medium at 37°C with 5% CO2 for 24 h. […] The cells were treated for 20 min with 2.5 μM JC-10 dye in warm PBS. JC-10 accumulation in cells was evaluated using a Gramma Libero FLUO500T trinocular inverted fluorescence microscope. We used the 525/590 nm fluorescence emission ratio for our quantification analysis. We captured images using the 2020 S-EYE Setup Microscope camera and the S-EYE_Setup-1.6.0.11 software. The ImageJ program was used to analyse the images.

MRC-5 = assay: MTT cytotoxicity assay, MRC-5 fibroblasts; format: cell-based, human; details: mean ± SD
Text: as §1

CT-DNA = assay: DNA viscosity measurement; format: binding, calf; details: 0.01 mM DNA in PBS, [2c]/[DNA] 0.1-1
Experimental: All chemicals were used without purification, and all of them are commercially available. ^1H NMR and ^13C NMR spectra were recorded in DMSO-d6 as a solvent with a Bruker Ascend 400 (400 MHz) spectrometer. Chemical shifts are given in parts per million (δ) down from tetramethylsilane as the internal standard. For elemental analyses (C, H, O, N) were used Elementar Vario MICRO elemental analyzer. IR spectra were obtained on Perkin Elmer FT-IR spectrometer, two equipped with a DTGS detector. Mass spectra were recorded at 6546 LC/Q-TOF (Agilent, Santa Clara, CA, SAD) equipped with Jet Stream ion source and connected with 1,290 Infinity II HPLC (Agilent, Santa Clara, CA, AD). Data were collected every second in the mass area 100–1,000 Da. Molar conductance of the Pd(II) complexes was measured on freshly prepared 10^–3 M solutions in DMSO at room temperature using Crison EC-Meter basic 30+conductivity cell. The viscosity of the DNA solution was measured in the absence and presence of increasing amounts of 2c. To the 0.01 mM DNA solution in PBS, a corresponding ratio of examinated compound was added at ratio [2c]/[DNA]: 0.1; 0.2; 0.3; 0.4; 0.5; 0.6; 0.7; 0.8; 0.9 and 1. Data are presented as a plot of (η/η0)1/3 vs. ratio of [2c]/[DNA], where η is the DNA viscosity in the presence of the compound, η0 is the viscosity of DNA in buffer alone.

DU-145 cells [4] = assay: Clonogenic assay; format: cell-based, human; details: DU-145, four concentrations, 2 weeks colony formation
Experimental: In this assay ([Franken et al., 2006]), cells are seeded at low densities and incubated for 2 weeks to allow colony formation, with colonies defined as clusters of ≥50 cells. Treated and untreated cells are compared to assess survival fractions (SF), calculated by normalizing the plating efficiency (PE) of treated cells to that of controls. Colonies are fixed with 6% glutaraldehyde, stained with 0.5% crystal violet, and colonies were quantified using ImageJ software version 1.54 with a standardized macro. Images were first converted to 8-bit grayscale, and background noise was reduced using the “Subtract Background” function. Thresholding was applied to isolate colonies, and the “Analyze Particles” tool was used to count colonies based on defined size and circularity parameters. Only colonies with an area corresponding to ≥50 cells and a circularity range of 0.3–1.0 were included. Overlapping or merged colonies were excluded unless distinct borders were visually discernible. All image processing steps were applied consistently across samples to ensure reproducibility. Data are represented as dose-response survival curves.
Plating efficiency is calculated by the following formula: PE=Number of colonies/Number of cells seeded×100%
Survival fraction is calculated when all plating efficiencies are calculated according to the formula: SF=PEtreated/PEcontrol

Row | Structure (SMILES) | IC50 (DU-145; DU-145, 24 h drug exposure) [µM] | IC50 (DU-145; DU-145, 48 h drug exposure) [µM] | IC50 (DU-145; DU-145, 72 h drug exposure) [µM] | stability in DMSO [1] | stability in solution (PBS) [2] | IC50 (PC-3; PC-3, 24 h drug exposure) [µM] | IC50 (PC-3; PC-3, 48 h drug exposure) [µM] | IC50 (PC-3; PC-3, 72 h drug exposure) [µM] | increase of JC-10 green/JC-10 red ratio compared to untreated cells (DU-145 cells [3]) [fold] | IC50 (MRC-5; MRC-5, 24 h drug exposure) [µM] | IC50 (MRC-5; MRC-5, 48 h drug exposure) [µM] | IC50 (MRC-5; MRC-5, 72 h drug exposure) [µM] | DNA binding mode from viscosity (CT-DNA) | long-term antiproliferative effect (survival fraction) (DU-145 cells [4])
1 | Oc1ccc(CCN=Cc2ccccc2[O][Pd][O]c2ccccc2C=NCCc2ccc(O)cc2)cc1 [Complex 2b] | 75.9 ± 7.3 | 19.2 ± 2.1 | 8.7 ± 0.8 | retaining its structural integrity without signs of ligand displacement or decomposition | sufficient stability in solution under physiologically relevant conditions | 75.2 ± 7.2 | 58.6 ± 5.6 | 29.1 ± 2.8 | 2.9 | 87.7 ± 8.8 | 78.5 ± 7.7 | 49.2 ± 5.1 | – | –
2 | Oc1ccc(CN=Cc2ccccc2[O][Pd][O]c2ccccc2C=NCc2ccc(O)cc2)cc1 [Complex 2a] | 83.6 ± 9.2 | 17.5 ± 1.6 | 9.3 ± 0.9 | – | – | 94.1 ± 9.1 | 89.8 ± 8.8 | 79.3 ± 7.7 | 2.1 | 94.3 ± 9.7 | 92.4 ± 9.1 | 83 ± 8.1 | – | –
3 | C(=NCCc1c[nH]c2ccccc12)c1ccccc1[O][Pd][O]c1ccccc1C=NCCc1c[nH]c2ccccc12 [Complex 2c] | 48.4 ± 5.1 | 11 ± 1.2 | 7.1 ± 0.8 | – | – | 38.4 ± 3.6 | 12.5 ± 1.1 | 8.6 ± 0.9 | 3.2 | 80.7 ± 8.1 | 75.6 ± 7.7 | 42.3 ± 4.1 | intercalates very weakly | most pronounced effect
4 | N.N.[Cl][Pt][Cl] [CP, cisplatin, reference compound] | 22.3 ± 2.4 | 11.4 ± 1.1 | 8.2 ± 0.8 | – | – | – | 29.7 ± 3.1 | 21.9 ± 2.2 | – | 90.1 ± 9.2 | 41.9 ± 4.4 | 24.4 ± 0.8 | – | –
